Laboratory results: publication PMC9663578, “A fluorogenic probe for predicting treatment response in non-small cell lung cancer with EGFR-activating mutations” (Nature Communications, 2022)
Values joined by “and” are separate entries in the source; they are usually repeats but may differ in a detail not shown here. Equal entries are not always repeated.

Legend:
EGFR L858R = target: T1, EGFR L858R (Homo sapiens, UniProt P00533, L858R); assay: Kinase inhibition assay (fluorescent mobility-shift assay); format: biochemical; parameters: Kinase activity: unit not given here; details: for Kinase activity: L858R, n=1-3
T1 construct: EGFR L858R (amino acids 668–1210, #PR7447A); purchased Thermo Fisher PR7447A

A549 = assay: Western blot of EGFR activation and downstream AKT and ERK1/2 phosphorylation; format: cell-based, human; details: for p-kinase / kinase pAKT/AKT / p-kinase / kinase pEGFR/EGFR / p-kinase / kinase pERK/ERK: Fig. 2j A549, DMSO = 1, n=1-3
Description: (§1) Western blotting analysis was performed to investigate the expression of EGFR and downstream signaling pathway in various cancer cells. Cells were added at a density of 5 × 10^5 per well in six-well plates and serum-starved in DMEM without FBS. […] After a PBS washing step, the cells were harvested and lysed in RIPA lysis buffer (Thermo Scientific, #89900) on ice for 20 min. After sonication, cell lysates were centrifuged at 12,000×g at 4 °C for 20 min. The supernatant was collected and protein concentration was determined by a BCA protein quantitation kit (Vazyme) and normalized to 2 mg/mL. Subsequently, 20 µL of protein sample was loaded to each lane and resolved on a 10% SDS-PAGE gel. After that, proteins on the gel were transferred onto polyvinylidene difluoride (PVDF) membranes (0.45 µm, Amersham Bioscience). PVDF membranes were blocked with 5% BSA blocking solution for 2 h at room temperature, followed by incubation with different primary antibodies (4 °C, overnight), including EGFR (#4267, 1:1000), phospho-EGFR (#3777, 1:1000), Akt (#4685, 1:1000), phospho-Akt (#4060, 1:1000), ERK1/2 (#4695, 1:1000), phospho-ERK1/2 (#4370, 1:2000) and GAPDH (#5174, 1:2000). Next, the membranes were washed by TBST buffer (Tris buffer with 0.1% Tween-20) for three times, followed by incubation with anti-rabbit IgG (HRP-linked antibody, #7074, 1:5000) for 1 h at room temperature. Finally, the blots were washed in PBST and immunoreactive proteins were detected using a luminal solution with ECL enhancer and H2O2 by ChemiDoc MP (BioRad) with Image Lab 6.0 software. The band density of each band was quantified and normalized to that of the corresponding GAPDH band to correct the possible differences in the content of protein loading. Each experiment was repeated 3 times for statistical analysis, and uncropped blots are in Source Data.

A431 = assay: as above; format: cell-based, human
Description: as §1

Hela cells = assay: FACS assay in cultured cells; details: for HX103 dose-dependent signal (Supplementary Fig. 18): 20 µM = 100
Description: Briefly, the cultured cells were seeded on the petri dish and counted using Count star BioMed automated cell counter. Around 10^6 live-cells were collected and were pelleted (2000×g, 3 min), followed by washing with PBS (2x). Cells were then resuspended in PBS buffer containing 0.1% BSA (1 × 10^6 cells/mL). […] The cell suspension was resuspended in PBS and analyzed with a FACSVerse^TM flow cytometer (BD Biosciences, LSRFortessa). About 10,000 events per tube were analyzed and the mean fluorescence intensity was detected and analyzed.
For the FACS assay with EGFR antibody, around 10^6 live-cells were collected and washed with PBS (2x). The cells were fixed by 400 µL 4% paraformaldehyde for 15 min at room temperature, followed by permeabilization with 0.1% Triton X-100 for 10 min and blocking with 5% BSA for 30 min. […] The cells were then washed with 0.5% BSA/PBS (3x) and resuspended in 400 µL of 0.1% BSA/PBS. […] The resuspended cell suspension was then analyzed on a FACSVerseTM flow cytometer (BD Biosciences, LSRFortessa). Nonspecific fluorescence binding was omitted by Rabbit mAb IgG isotype control (#3900, CST, 1:100) and the corresponding mean fluorescence was subtracted from the signal measured with each primary antibody. About 10,000 events per tube were analyzed and the mean fluorescence intensity was detected and analyzed.
Subsequently, the treated cells were incubated for 30 min at 37 °C, followed by washing with PBS buffer three times. […] Finally, the co-stained cells were washed with 0.5% BSA/PBS for three times and resuspended in 400 µL of 0.1% BSA/PBS. The obtained cell suspension was ready for analysis. Nonspecific fluorescence binding was omitted by Rabbit mAb IgG isotype control (#3900, CST, 1:100) as described above.
Nonspecific fluorescence binding was omitted by Rabbit mAb IgG isotype control (#3900, CST, 1:100). […] After incubation for another 30 min at room temperature, the co-stained cells were washed with 0.5% BSA/PBS for three times and resuspended in 400 µL of 0.1% BSA/PBS. The obtained cell suspension was ready for analysis. Nonspecific fluorescence binding was omitted by Rabbit mAb IgG isotype control (#3900, CST, 1:100) as described above.
The cells were seeded on the petri dish and cultured at the normal condition with 10% FBS, and that was changed to serum-free condition for 24 h when the cells proliferated at ~80% confluence. […] Nonspecific fluorescence binding was omitted by Rabbit mAb IgG isotype control (#3900, CST, 1:100) as described above.

[1] = concentration 0.3 (unit not given)
[2] = concentration 1 (unit not given)
[3] = concentration 3 (unit not given)
[4] = concentration 10 (unit not given)
[5] = Fig. 2i A431, concentration 0.3 (unit not given), DMSO = 1, n=1-3
[6] = Fig. 2i A431, concentration 1 (unit not given), DMSO = 1, n=1-3
[7] = Fig. 2i A431, concentration 3 (unit not given), DMSO = 1, n=1-3
[8] = Fig. 2i A431, concentration 10 (unit not given), DMSO = 1, n=1-3

T1 sequence (P00533 668-1210 L858R): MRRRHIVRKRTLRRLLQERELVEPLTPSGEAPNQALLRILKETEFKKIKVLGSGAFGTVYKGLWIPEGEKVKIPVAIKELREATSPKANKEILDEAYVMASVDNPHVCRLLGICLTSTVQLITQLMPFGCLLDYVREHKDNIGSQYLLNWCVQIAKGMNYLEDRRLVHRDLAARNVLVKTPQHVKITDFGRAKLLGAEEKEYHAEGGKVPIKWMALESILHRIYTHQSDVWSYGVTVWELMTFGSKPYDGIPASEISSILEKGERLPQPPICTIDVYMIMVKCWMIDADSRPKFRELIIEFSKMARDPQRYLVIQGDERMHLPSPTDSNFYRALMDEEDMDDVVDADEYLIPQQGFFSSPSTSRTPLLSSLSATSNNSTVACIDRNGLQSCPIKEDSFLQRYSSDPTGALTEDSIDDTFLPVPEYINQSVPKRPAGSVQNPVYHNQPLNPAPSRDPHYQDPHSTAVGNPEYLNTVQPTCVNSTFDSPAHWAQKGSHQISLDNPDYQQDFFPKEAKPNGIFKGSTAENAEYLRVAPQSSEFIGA

COc1cc2c(Nc3ccc(F)c(Cl)c3)ncnc2cc1OCCCNc1ccc(S(=O)(=O)N(C)C)c2nonc12 [HX103]
Kinase activity (EGFR L858R; Log [HX103 (M)] -5.5): 1.026 and 1.162 and 1.004 | Kinase activity (EGFR L858R; Log [HX103 (M)] -6): 0.499 and 0.9509 and 0.7157 | Kinase activity (EGFR L858R; Log [HX103 (M)] -7): 0.6308 and 0.9321 and 0.7802 | Kinase activity (EGFR L858R; Log [HX103 (M)] -7.5): 4.698 and 2.842 and 4.52 | Kinase activity (EGFR L858R; Log [HX103 (M)] -8): 12.69 and 17.65 and 16.97 | Kinase activity (EGFR L858R; Log [HX103 (M)] -8.5): 28.21 and 40.93 and 37.97 | Kinase activity (EGFR L858R; Log [HX103 (M)] -9): 37.52 and 69.85 and 65.69 | IC50 (EGFR L858R; n = 3): 1.5 nM | p-kinase / kinase pAKT/AKT (A549; [1]): 0.202 and 0.332 and 0.222 | p-kinase / kinase pEGFR/EGFR (A549; [1]): 0.116 and 0.065 and 0.105 | p-kinase / kinase pERK/ERK (A549; [1]): 0.558 and 0.86 and 0.689 | p-kinase / kinase pAKT/AKT (A549; [2]): 0.118 and 0.103 and 0.095 | p-kinase / kinase pERK/ERK (A549; [2]): 0.486 and 0.455 and 0.485 | p-kinase / kinase pEGFR/EGFR (A549; [3]): 0.07 and 0.045 and 0.073 | p-kinase / kinase pERK/ERK (A549; [3]): 0.34 and 0.535 and 0.512 | p-kinase / kinase pAKT/AKT (A549; [4]): 0.014 and 0.013 and 0.015 | p-kinase / kinase pERK/ERK (A549; [4]): 0.39 and 0.424 and 0.512 | effect on wild-type EGFR phosphorylation (A549; HX103 0 to 10 µM, EGF 25 ng/mL): significantly inhibited | p-kinase / kinase pAKT/AKT (A431; [5]): 0.604 and 0.491 and 0.502 | p-kinase / kinase pERK/ERK (A431; [5]): 0.593 and 0.802 and 0.793 | p-kinase / kinase pAKT/AKT (A431; [6]): 0.33 and 0.312 and 0.321 | p-kinase / kinase pERK/ERK (A431; [6]): 0.301 and 0.442 and 0.417 | p-kinase / kinase pAKT/AKT (A431; [7]): 0.264 and 0.189 and 0.222 | p-kinase / kinase pERK/ERK (A431; [7]): 0.169 and 0.13 and 0.175 | p-kinase / kinase pAKT/AKT (A431; [8]): 0.241 and 0.197 and 0.219 | p-kinase / kinase pEGFR/EGFR (A431; [8]): 0.067 and 0.066 and 0.064 | effect on wild-type EGFR phosphorylation (A431; HX103 0 to 10 µM, EGF 25 ng/mL): significantly inhibited | normalized MFI of HX103 labeling (Hela cells; HX103 5 µM, 30 min, replicates n=1-3): 54.5064% and 65.6652% and 60.0858% | EGFR(+) HX103 (+) (%) (Hela cells; HX103 5 µM, replicates n=1-3): 13.055% and 13.1% and 19.51% | EGFR(+) HX103 (+) (%) AVE (Hela cells; Hela, AVE of n=3): 15.2217% | HX103 (+) (%) AVE (Hela cells; Hela, AVE of n=3): 15.7267% | HX103 dose-dependent signal (Supplementary Fig. 18) (Hela cells; Hela, HX103 0.37 µM): 10.7485 and 20.011 and 16.0693 | HX103 dose-dependent signal (Supplementary Fig. 18) (Hela cells; Hela, HX103 1.1 µM): 23.8614 and 34.4348 and 25.4882 | HX103 dose-dependent signal (Supplementary Fig. 18) (Hela cells; Hela, HX103 3.3 µM): 36.4324 and 54.3602 and 56.4764 | HX103 dose-dependent signal (Supplementary Fig. 18) (Hela cells; Hela, HX103 10 µM): 67.5297 and 65.6787 and 69.9637 | HX103 dose-dependent signal (Supplementary Fig. 18) (Hela cells; Hela, HX103 15 µM): 106.382 and 89.2391 and 92.3446 | HX103 dose-dependent signal (Supplementary Fig. 18) (Hela cells; Hela, HX103 20 µM): 100 | HX103 signal (Supplementary Fig. 7) (Hela cells; Hela, HX103 alone or with Gefitinib, replicates n=1-3): 110.043 and 93.8574 and 96.1 | EGFR(+) HX103 (+) (%) (Hela cells; Hela, replicates n=1-3): 19.51% and 13.055% and 13.1% | HX103(+) (%) (Hela cells; Hela, replicates n=1-3): 15.88% and 13.1% and 18.2%
